Patent publication US20150105252A1, “SUBSTITUTED PYRAZOLES AS HERBICIDES” (E I DU PONT DE NEMOURS AND COMPANY, priority 2013, published 2015)

What was measured:
bluegrass = assay: Test D preemergence; assay type: in vivo, Poa annua; conditions: for Plant response rating, Bluegrass: Preemergence, scale 0 to 100
Description: (§1) Seeds of plant species selected from bluegrass (annual bluegrass, Poa annua), blackgrass (Alopecurus myosuroides), canarygrass (littleseed canarygrass, Phalaris minor), chickweed (common chickweed, Stellaria media), galium (catchweed bedstraw, Galium aparine), bromegrass, downy (downy bromegrass, Bromus tectorum), field poppy (Papaver rhoeas), field violet (Viola arvensis), foxtail, green (green foxtail, Setaria viridis), deadnettle (henbit deadnettle, Lamium amplexicaule), ryegrass, Italian (Italian ryegrass, Lolium multiflorum), kochia (Kochia scoparia), lambsquarters (Chenopodium album), oilseed rape (Brassica napus), pigweed (redroot pigweed, Amaranthus retroflexus), chamomile (scentless chamomile, Matricaria inodora), speedwell (bird's-eye speedwell, Veronica persica), barley, spring (spring barley, Hordeum vulgare), wheat, spring (spring wheat, Triticum aestivum), buckwheat, wild (wild buckwheat, Polygonum convolvulus), mustard, wild (wild mustard, Sinapis arvensis), oat, wild (wild oat, Avena fatua), radish, wild (wild radish, Raphanus raphanistrum), windgrass (Apera spica-venti), Russian thistle (Salsola kali), barley, winter (winter barley, Hordeum vulgare), and wheat, winter (winter wheat, Triticum aestivum) were planted into a silt loam soil and treated preemergence with test chemicals formulated in a non-phytotoxic solvent mixture which included a surfactant.
(§2) At the same time, these species were planted in pots containing Redi-Earth® planting medium (Scotts Company, 14111 Scottslawn Road, Marysville, Ohio 43041) comprising spaghnum peat moss, vermiculite, wetting agent and starter nutrients and treated with postemergence applications of the test chemicals formulated in the same manner. Plants ranged in height from 2 to 18 cm (1- to 4-leaf stage). Treated plants and controls were maintained in a controlled growth environment for 14 to 21 days after which time all species were compared to controls and visually evaluated. Plant response ratings, summarized in Table D, are based on a scale of 0 to 100 where 0 is no effect and 100 is complete control. A dash (-) response means no test result.

chickweed = assay: Test D preemergence; assay type: in vivo, Stellaria media; conditions: for Plant response rating, Chickweed: Preemergence, scale 0 to 100
In short: (§3)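 Visual injury scored 0–100 (0 none, 100 complete control) against controls 14–21 days after treatment in a controlled growth environment. Chemicals were formulated in a non-phytotoxic solvent mixture containing surfactant, applied to silt loam soil preemergence or to 1- to 4-leaf plants postemergence.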

galium = assay: Test D preemergence; assay type: in vivo, Galium aparine; conditions: for Plant response rating, Galium: Preemergence, scale 0 to 100
Description: as §1, §2

field poppy = assay: Test D preemergence; assay type: in vivo, Papaver rhoeas; conditions: for Plant response rating, Field Poppy: Preemergence, scale 0 to 100
In short: as §3

field violet = assay: Test D preemergence; assay type: in vivo, Viola arvensis; conditions: for Plant response rating, Field Violet: Preemergence, scale 0 to 100
In short: as §3

kochia [1] = assay: Test D preemergence; assay type: in vivo, Kochia scoparia; conditions: for Plant response rating, Kochia: Preemergence, scale 0 to 100
In short: as §3

oilseed rape = assay: Test D preemergence; assay type: in vivo, Brassica napus; conditions: for Plant response rating, Oilseed Rape: Preemergence, scale 0 to 100
Description: as §1, §2

chamomile [2] = assay: Test D preemergence; assay type: in vivo, Matricaria inodora; conditions: for Plant response rating, Chamomile: Preemergence, scale 0 to 100
In short: as §3

wheat, spring = assay: Test D preemergence; assay type: in vivo, Triticum aestivum; conditions: for Plant response rating, Wheat, Spring: Preemergence, scale 0 to 100
Description: as §1, §2

wheat, winter = assay: Test D preemergence; assay type: in vivo, Triticum aestivum; conditions: for Plant response rating, Wheat, Winter: Preemergence, scale 0 to 100
Description: as §1, §2

windgrass = assay: Test D preemergence; assay type: in vivo, Apera spica-venti; conditions: for Plant response rating, Windgrass: Preemergence, scale 0 to 100
Description: as §1, §2

blackgrass = assay: Test D postemergence; assay type: in vivo, Alopecurus myosuroides; conditions: scale 0 to 100
Description: as §1, §2

bromegrass, downy = assay: Test D postemergence; assay type: in vivo, Bromus tectorum; conditions: scale 0 to 100
In short: as §3

deadnettle = assay: Test D postemergence; assay type: in vivo, Lamium amplexicaule; conditions: scale 0 to 100
In short: as §3

kochia [3] = assay: Test D postemergence; assay type: in vivo, Kochia scoparia; conditions: scale 0 to 100
Description: as §1, §2

chamomile [4] = assay: Test D postemergence; assay type: in vivo, Matricaria inodora; conditions: scale 0 to 100
Description: as §1, §2

speedwell = assay: Test D postemergence; assay type: in vivo, Veronica persica; conditions: scale 0 to 100
In short: as §3

barley, spring = assay: Test D postemergence; assay type: in vivo, Hordeum vulgare; conditions: scale 0 to 100
In short: as §3

barley, winter = assay: Test D postemergence; assay type: in vivo, Hordeum vulgare; conditions: scale 0 to 100
In short: as §3

buckwheat, wild = assay: Test D postemergence; assay type: in vivo, Polygonum convolvulus; conditions: scale 0 to 100
In short: as §3

[5] = 16 g ai/ha, taken as preemergence

Structure (SMILES): CCc1cc(C(=O)NOC(C)C)nn1Cc1cccc(OC(F)(F)F)c1 [Compound 70]
- Plant response rating (scale 0 to 100), Bluegrass (bluegrass; [5]): 0
- Plant response rating, Bluegrass (bluegrass; 31 g ai/ha): 0
- Plant response rating, Bluegrass (bluegrass; 62 g ai/ha): 0
- Plant response rating, Bluegrass (bluegrass; 125 g ai/ha): 0
- Plant response rating, Bluegrass (bluegrass; 250 g ai/ha): 10
- Plant response rating (scale 0 to 100), Chickweed (chickweed; [5]): 0
- Plant response rating, Chickweed (chickweed; 31 g ai/ha): 0
- Plant response rating, Chickweed (chickweed; 62 g ai/ha): 10
- Plant response rating, Chickweed (chickweed; 125 g ai/ha): 100
- Plant response rating, Chickweed (chickweed; 250 g ai/ha): 100
- Plant response rating (scale 0 to 100), Galium (galium; [5]): 0
- Plant response rating, Galium (galium; 31 g ai/ha): 0
- Plant response rating, Galium (galium; 62 g ai/ha): 10
- Plant response rating, Galium (galium; 250 g ai/ha): 40
- Plant response rating (scale 0 to 100), Field Poppy (field poppy; [5]): 20
- Plant response rating, Field Poppy (field poppy; 31 g ai/ha): 100
- Plant response rating, Field Poppy (field poppy; 62 g ai/ha): 100
- Plant response rating, Field Poppy (field poppy; 125 g ai/ha): 90
- Plant response rating, Field Poppy (field poppy; 250 g ai/ha): 100
- Plant response rating (scale 0 to 100), Field Violet (field violet; [5]): 0
- Plant response rating, Field Violet (field violet; 31 g ai/ha): 0
- Plant response rating, Field Violet (field violet; 62 g ai/ha): 0
- Plant response rating, Field Violet (field violet; 125 g ai/ha): 50
- Plant response rating, Field Violet (field violet; 250 g ai/ha): 50
- Plant response rating (scale 0 to 100), Kochia (kochia [1]; [5]): 0
- Plant response rating, Kochia (kochia [1]; 31 g ai/ha): 10
- Plant response rating, Kochia (kochia [1]; 62 g ai/ha): 20
- Plant response rating, Kochia (kochia [1]; 125 g ai/ha): 30
- Plant response rating, Kochia (kochia [1]; 250 g ai/ha): 50
- Plant response rating (scale 0 to 100), Oilseed Rape (oilseed rape; [5]): 0
- Plant response rating, Oilseed Rape (oilseed rape; 31 g ai/ha): 0
- Plant response rating, Oilseed Rape (oilseed rape; 62 g ai/ha): 0
- Plant response rating, Oilseed Rape (oilseed rape; 125 g ai/ha): 10
- Plant response rating, Oilseed Rape (oilseed rape; 250 g ai/ha): 40
- Plant response rating (scale 0 to 100), Chamomile (chamomile [2]; [5]): 0
- Plant response rating, Chamomile (chamomile [2]; 31 g ai/ha): 0
- Plant response rating, Chamomile (chamomile [2]; 62 g ai/ha): 0
- Plant response rating, Chamomile (chamomile [2]; 125 g ai/ha): 15
- Plant response rating, Chamomile (chamomile [2]; 250 g ai/ha): 40
- Plant response rating (scale 0 to 100), Wheat, Spring (wheat, spring; [5]): 0
- Plant response rating, Wheat, Spring (wheat, spring; 31 g ai/ha): 0
- Plant response rating, Wheat, Spring (wheat, spring; 62 g ai/ha): 0
- Plant response rating, Wheat, Spring (wheat, spring; 125 g ai/ha): 10
- Plant response rating, Wheat, Spring (wheat, spring; 250 g ai/ha): 20
- Plant response rating (scale 0 to 100), Wheat, Winter (wheat, winter; [5]): 0
- Plant response rating, Wheat, Winter (wheat, winter; 31 g ai/ha): 0
- Plant response rating, Wheat, Winter (wheat, winter; 62 g ai/ha): 0
- Plant response rating, Wheat, Winter (wheat, winter; 125 g ai/ha): 0
- Plant response rating, Wheat, Winter (wheat, winter; 250 g ai/ha): 10
- Plant response rating (scale 0 to 100), Windgrass (windgrass; [5]): 0
- Plant response rating, Windgrass (windgrass; 31 g ai/ha): 0
- Plant response rating, Windgrass (windgrass; 62 g ai/ha): 0
- Plant response rating, Windgrass (windgrass; 125 g ai/ha): 0
- Plant response rating, Windgrass (windgrass; 250 g ai/ha): 0
- Plant response rating, Blackgrass (blackgrass; Postemergence, 16 g ai/ha): 0
- Blackgrass plant response rating (blackgrass; Postemergence, 31 g ai/ha): 0
- Blackgrass plant response rating (blackgrass; Postemergence, 125 g ai/ha): 0
- Blackgrass plant response rating (blackgrass; Postemergence, 250 g ai/ha): 0
- Blackgrass plant response rating (blackgrass; postemergence, 62 g ai/ha): 0
- Plant response rating, Bromegrass, Downy (bromegrass, downy; Postemergence, 16 g ai/ha): 0
- Bromegrass, Downy plant response rating (bromegrass, downy; Postemergence, 31 g ai/ha): 0
- Bromegrass, Downy plant response rating (bromegrass, downy; Postemergence, 125 g ai/ha): 0
- Bromegrass, Downy plant response rating (bromegrass, downy; Postemergence, 250 g ai/ha): 10
- Bromegrass, Downy plant response rating (bromegrass, downy; postemergence, 62 g ai/ha): 0
- Plant response rating, Deadnettle (deadnettle; Postemergence, 16 g ai/ha): 0
- Deadnettle plant response rating (deadnettle; Postemergence, 31 g ai/ha): 10
- Deadnettle plant response rating (deadnettle; Postemergence, 125 g ai/ha): 30
- Deadnettle plant response rating (deadnettle; Postemergence, 250 g ai/ha): 60
- Deadnettle plant response rating (deadnettle; postemergence, 62 g ai/ha): 10
- Plant response rating, Kochia (kochia [3]; Postemergence, 16 g ai/ha): 40
- Kochia plant response rating (kochia [3]; Postemergence, 31 g ai/ha): 85
- Kochia plant response rating (kochia [3]; Postemergence, 125 g ai/ha): 98
- Kochia plant response rating (kochia [3]; Postemergence, 250 g ai/ha): 95
- Kochia plant response rating (kochia [3]; postemergence, 62 g ai/ha): 70
- Plant response rating, Chamomile (chamomile [4]; Postemergence, 16 g ai/ha): 10
- Chamomile plant response rating (chamomile [4]; Postemergence, 31 g ai/ha): 30
- Chamomile plant response rating (chamomile [4]; Postemergence, 125 g ai/ha): 40
- Chamomile plant response rating (chamomile [4]; Postemergence, 250 g ai/ha): 50
- Chamomile plant response rating (chamomile [4]; postemergence, 62 g ai/ha): 30
- Plant response rating, Speedwell (speedwell; Postemergence, 16 g ai/ha): 100
- Speedwell plant response rating (speedwell; Postemergence, 31 g ai/ha): 100
- Speedwell plant response rating (speedwell; Postemergence, 125 g ai/ha): 100
- Speedwell plant response rating (speedwell; Postemergence, 250 g ai/ha): 100
- Speedwell plant response rating (speedwell; postemergence, 62 g ai/ha): 100
- Barley, Spring plant response rating (barley, spring; Postemergence, 16 g ai/ha): 0
- Barley, Spring plant response rating (barley, spring; Postemergence, 31 g ai/ha): 0
- Barley, Spring plant response rating (barley, spring; Postemergence, 125 g ai/ha): 5
- Barley, Spring plant response rating (barley, spring; Postemergence, 250 g ai/ha): 5
- Barley, Spring plant response rating (barley, spring; postemergence, 62 g ai/ha): 0
- Barley, Winter plant response rating (barley, winter; Postemergence, 16 g ai/ha): 0
- Barley, Winter plant response rating (barley, winter; Postemergence, 31 g ai/ha): 0
- Barley, Winter plant response rating (barley, winter; Postemergence, 125 g ai/ha): 5
- Barley, Winter plant response rating (barley, winter; Postemergence, 250 g ai/ha): 5
- Barley, Winter plant response rating (barley, winter; postemergence, 62 g ai/ha): 5
- Plant response rating, Buckwheat, Wild (buckwheat, wild; Postemergence, 16 g ai/ha): 10
- Buckwheat, Wild plant response rating (buckwheat, wild; Postemergence, 31 g ai/ha): 20
- Buckwheat, Wild plant response rating (buckwheat, wild; Postemergence, 125 g ai/ha): 20
- Buckwheat, Wild plant response rating (buckwheat, wild; Postemergence, 250 g ai/ha): 35
- Buckwheat, Wild plant response rating (buckwheat, wild; postemergence, 62 g ai/ha): 20
